Measurements as given in patent publication US10647737B2, “Sulfated-glycolipids as adjuvants for vaccines” (National Research Council of Canada, priority 2014, dated 2020).
Where “and” joins values, the source holds several entries; their conditions need not be identical. Identical values can stand only once. Blank lines part the entries; values can stand above or below the compound they belong to.

Experiments:
[1] = Archaeosome formation by hydration of dried lipid; type: physicochemical; settings: lipid hydrated in PBS with antigen
Experimental: (§1) In one method, archaeosomes were formed by hydrating 20-30 mg dried lipid at 40° C. in 2 ml PBS buffer (10 mM sodium phosphate, 160 mM NaCl, pH 7.1) with the protein antigen OVA dissolved at 10 mg/ml. Vesicle size was reduced to about 100-150 nm diameter by brief sonication in a sonic bath (Fisher Scientific), and the portion of OVA antigen not entrapped was removed by centrifugation from 7 ml PBS followed by 2 washes (200,000×g max for 30 min). Vesicle pellets were resuspended in 2-2.5 ml PBS and filter sterilized through 0.45 μm Millipore filters. Sterile conditions and pyrogen-free water was used throughout.
In another method, lipids dissolved in t-butanol/water received antigen dissolved in an equal volume of water. The sample was then lyophilized to a powder and rehydrated in PBS buffer. Size was reduced, antigen not entrapped was removed, and filtration conducted as above.

anti OVA antibody (IgG) = assay: Anti-OVA antibody titre in sera of immunized mice (Elisa); type: in vivo; settings: OVA-archaeosomes, immunized day 0 and 21; FIG. 13
Experimental: (§2) C57BL6 female mice ([…]) were immunized subcutaneously with 0.1 ml vaccines containing the equivalent of 20 μg OVA, often entrapped in archaeosomes of various compositions, A booster consisting of the same vaccine and route was given most often on week 3. In experiments addressing ability of archaeosomes to evoke immune response to a cancer self-antigen, TRP or Gp100 antigen in archaeosomes was administered at a dose of 15 μg antigen per injection and booster given on week 3.5 and week 8.5. In some experiments an additional third injection was given (˜95 days after first dose). All protocols and SOPs were approved by the NRC Animal Care Committee and conducted within the guidelines of the Canadian Council on Animal Care.
(§3) As a measure of CD4^+ T cell response, antibody raised to the antigen in the vaccine and present in the sera of mice (5-6 mice/group), was quantified by Elisa according to a previous description (Krishnan, L., Dicaire, C. J., Patel, G. B., and Sprott, G. D. 2000. Infect, Immun. 68:54-63). The CD8^+ T cell response was quantified by sacrificing 2 mice/group and pooling their splenic cells. These were assayed in triplicate for antigen-specific responses by Elispot and CTL methods (Krishnan, L., Sad, S., Patel, G. B., and Sprott, G. D. 2003. Cancer Res. 63:2526-2534).

[2] = Antigen loading of archaeosomes (SDS PAGE / SDS Lowry); type: physicochemical; settings: OVA antigen entrapped in archaeosomes
Experimental: as §1
In another method, lipids dissolved in t-butanol/water received antigen dissolved in an equal volume of water. The sample was then lyophilized to a powder and rehydrated in PBS buffer. […]
Quantification of antigen loading was conducted by separating protein(s) from lipids using SDS polyacrylamide gel electrophoresis as described (Sprott, G. D., Patel, G. B., and Krishnan, L. 2003. Methods Enzymol, 373:155-172). Loading of synthetic archaeosomes with antigens was also determined using SDS Lowry with standard curves prepared for the respective antigen. […] Average diameters based on Intensity and Zeta potentials were measured using a Malvern Nano Zetasizer with a He/Ne laser (Spectra Research Corp., Ontario, Canada).

CD8^+ T cell response = assay: Elispot of IFN-γ-secreting splenic cells of mice immunized with OVA-archaeosomes; type: in vivo; settings: OVA-loaded archaeosomes s.c. at 0 and 3 weeks; 6 weeks post first injection; FIG. 2
Experimental: as §2, with “All protocols and SOPs were approved by the NRC Animal Care Committee and conducted within the guidelines of the Canadian Council on Animal Care.” left out
as §3, with “These were assayed in triplicate for antigen-specific responses by Elispot and CTL methods (Krishnan, L., Sad, S., Patel, G. B., and Sprott, G. D. 2003. Cancer Res. 63:2526-2534).” left out
In a first example, adjuvant activity of the natural sulfated glycolipid purified from Haloferax volcanii (6′-HSO3-D-Manp-α-1,2-D-Glcp-α-1,1-archaeol) was compared to a synthetic 6′-S-lactosylarchaeol, not found in nature. […] CD8^+ T cell responses measured by Elispot splenic cell assays. […]

[3] = Average diameter of archaeosomes (Malvern Nano Zetasizer); type: physicochemical
Experimental: as §1
Quantification of antigen loading was conducted by separating protein(s) from lipids using SDS polyacrylamide gel electrophoresis as described (Sprott, G. D., Patel, G. B., and Krishnan, L. 2003. Methods Enzymol, 373:155-172). Loading of synthetic archaeosomes with antigens was also determined using SDS Lowry with standard curves prepared for the respective antigen. Loading was based on μg protein/mg salt corrected dry weight of lipid. Average diameters based on Intensity and Zeta potentials were measured using a Malvern Nano Zetasizer with a He/Ne laser (Spectra Research Corp., Ontario, Canada).

EL-4+TRP target cells = assay: CD8+ T cell response (ELISPOT, CTL) to cancer self-antigen TRP / Gp100 delivered in archaeosomes; type: in vivo, mice; settings: TRP-liposomes; 15.5 weeks; FIG. 12
Experimental: as §2, with “All protocols and SOPs were approved by the NRC Animal Care Committee and conducted within the guidelines of the Canadian Council on Animal Care.” left out
as §3, with “These were assayed in triplicate for antigen-specific responses by Elispot and CTL methods (Krishnan, L., Sad, S., Patel, G. B., and Sprott, G. D. 2003. Cancer Res. 63:2526-2534).” left out
Peptides HLA.A2/H-2K^b TRP-2180-188 (SVYDFFVWL), CTL epitope from tyrosinase related protein-2 and Gp10025-35 (KVPRNQDWL) from human melanoma antigen Gp100 were synthesized. […] Quantification was done using a calibration curve based on known amounts of each of the respective peptides. […]

archaeosome vesicle formation / hydrating ability [1]: did not hydrate well
archaeosome vesicle formation / hydrating ability ([1]; listed as lactosylarchaeol): did not form
Compound: CC(C)CCC[C@@H](C)CCC[C@@H](C)CCC[C@@H](C)CCOC[C@@H](CO[C@@H]1O[C@H](CO)[C@@H](O[C@@H]2O[C@H](CO)[C@H](O)[C@H](O)[C@H]2O)[C@H](O)[C@H]1O)OCC[C@H](C)CCC[C@H](C)CCC[C@H](C)CCCC(C)C [LA, lactosylarchaeol]

archaeosome vesicle formation / hydrating ability [1]: did not form
Compound: CC(C)CCCC(C)CCCC(C)CCCC(C)CCOCC(CO[C@@H]1O[C@H](CO[C@@H]2O[C@H](CO[C@@H]3O[C@H](CO)[C@@H](O)[C@H](O)[C@H]3O)[C@@H](O)[C@H](O)[C@H]2O)[C@@H](O)[C@H](O)[C@H]1O)OCCC(C)CCCC(C)CCCC(C)CCCC(C)C (stereo partly drawn) [Glc3A, β-Glcp-(1,6)-β-Glcp-(1,6)-β-D-Glcp-(1,1)-archaeol]

Compound: CC(C)CCCC(C)CCCC(C)CCCC(C)CCOCC(CO[C@@H]1O[C@H](CO)[C@@H](O[C@@H]2O[C@H](CO[C@@H]3O[C@H](COS(=O)(=O)O)[C@@H](O)[C@H](O)[C@H]3O)[C@H](O)[C@H](O)[C@H]2O)[C@H](O)[C@H]1O)OCCC(C)CCCC(C)CCCC(C)CCCC(C)C (stereo partly drawn) [sulfated-trisaccharide archaeol, 6′-sulfated β-D-Glcp-(1,6)-β-D-Galp-(1,4)-β-D-Glcp-(1,1)-archaeol]
antibody response to OVA in serum (anti OVA antibody (IgG)): strong antibody response

Compound: CC(C)CCCC(C)CCCC(C)CCCC(C)CCOCC(CO[C@@H]1O[C@H](CO)[C@@H](O[C@@H]2O[C@H](COS(=O)(=O)O)[C@H](OS(=O)(=O)O)[C@H](O)[C@H]2O)[C@H](O)[C@H]1O)OCCC(C)CCCC(C)CCCC(C)CCCC(C)C (stereo partly drawn) [di-sulfated LA, 4′-6′-disulfate-β-D-Galp-(1,4)-β-D-Glcp-(1,1)-archaeol]
antibody response to OVA in serum (anti OVA antibody (IgG)): strong antibody response

Compound: CC(C)CCCC(C)CCCC(C)CCCC(C)CCOCC(CO[C@@H]1OC(CO)[C@@H](O[C@@H]2OC(COS(=O)(=O)[O+]=[Na])[C@H](O)[C@H](O)C2O)[C@H](O)C1O)OCCC(C)CCCC(C)CCCC(C)CCCC(C)C (stereo partly drawn) [SLA, (2R)-2,3-Bis[(3R,7R,11R)-3,7,11,15-tetramethylhexadecyloxy]propan-1-yl 4-O-(6-O-sulfo-β-D-galactopyranosyl)-β-D-glucopyranoside]
archaeosome vesicle formation / hydrating ability [1]: excellent hydrating ability
antibody response to OVA in serum (anti OVA antibody (IgG)): strong antibody response
Loading (μg antigen/mg archaeosome) [2]: 35.0 μg antigen/mg archaeosome and 22.0 μg antigen/mg archaeosome
CD8+ T cell response, frequency of IFN-γ-secreting splenic cells (Elispot) (CD8^+ T cell response): highest response
Average Diameter (nm) 12 weeks ([3]; 12 weeks storage): 176 nm
Average Diameter (nm) 20 weeks ([3]; 20 weeks storage): 168 nm
Average Diameter (nm) At first injection ([3]; at first injection): 172 nm and 168 nm
adjuvant activity and CD8+ T cell response, archaeol from H. salinarum versus H. volcanii (EL-4+TRP target cells): equally effective
